The nature of data set [1]: Stability in buffer at various pH values (HPLC detection). In kind it is physicochemical. Conditions: for recovery at 60 min, 0.2 mg/mL / recovery at 120 min, 0.2 mg/mL / recovery at 240 min, 0.2 mg/mL / recovery at 1440 min, 0.2 mg/mL: read-out: Recovery (Assay 6, prodrug stability); for Stability pH4: % Test Compound after 4 h [F(t = 4 h) × 100/F(t = 0 h)]: pH 4, 4 h; for Stability pH4: % Test Compound after 4 h [F(t = 4 h) × 100/F(t = 0 h)] / Stability pH7.4: % Test Compound after 4 h [F(t = 4 h) × 100/F(t = 0 h)]: 37° C., prodrug remaining; for Stability pH7.4: % Test Compound after 4 h [F(t = 4 h) × 100/F(t = 0 h)]: pH 7.4, 4 h. As to the method: Stability in Buffer at Various pH Values (HPLC Detection)
0.3 mg of the test compound was solved in 0.1 ml dimethylsulfoxide and 0.4 ml acetonitrile. For complete dissolution the HPLC vial with the sample solution was sonified for about 20 seconds. Then 1.0 ml of the respective buffer solution was added and the sample was again treated in the ultrasonic bath.
Buffer Solutions Used: • pH 4.0: Fluka buffer, Order No. 33643 (11.76 g citric acid, 2.57 g sodium chloride and 2.72 g sodium hydroxide)
pH 7.4: 90 g of sodium chloride, 13.61 g of potassium dihydrogen phosphate and 83.35 g of 1 M sodium hydroxide solution were made up to 1 L with Millipore water and then diluted 1:10.
10 μl portions of the sample solution were analysed by HPLC at different times (0 h, 1 h, 2 h, 4 h and 24 h) at 37° C. The peak areas in percentage were used for quantification.
Agilent 1100 with DAD (G1315B), binary pump (G1312A), autosampler (G1329A), column oven (G1316A), thermostat (G1330B); column: Kromasil 100 C18, 250 mm×4 mm, 5 μm; column temperature: 37° C.; eluent A: water+5 ml of perchloric acid/litre, eluent B: acetonitrile.
The ratios of the peak area (F) at different times in relation to the peak area at the starting point are shown in Table 3 for representative examples: […]

For data set [2], the target named is T1, (recombinant) catalytic domain of human Bub1 (amino acids 704-1085) (Homo sapiens, UniProt O43683).
T1 construct: catalytic domain of human Bub1 (amino acids 704-1085); 6xHis (N); made in house; host or cells: Hi5 insect cells
The data set can be described thus: Equilibrium probe competition assay (TR-FRET kinase binding assay). Particulars: read-out: IC50 (Assay 5, probe competition). The text has this:
Equilibrium Probe Competition Assay:
Bub1 binding affinity of compounds described in the present invention were quantified using a time-resolved fluorescence energy transfer (TR-FRET) kinase binding assay which measures displacement of the synthetic fluorescent probe 5-[({2-[2-({2-[1-(4-ethoxy-2,6-difluorobenzyl)-1H-indazol-3-yl]-4-(pyridin-4-ylamino)pyrimidin-5-yl}oxy)ethoxy]ethyl}carbamothioyl)amino]-2-(6-hydroxy-3-oxo-3H-xanthen-9-yl)benzoic acid (5-5-1) by the (recombinant) catalytic domain of human Bub1 (amino acids 704-1085). The enzyme was expressed in Hi5 insect cells with N-terminal 6×His/AviTag@ seqences, purified by affinity-(Ni-NTA) and size exclusion chromatography and site-specific biotinylated ex-vivo using a commercially available kit (Avidity).
In a typical assay 11 different concentrations of each compound (0.1 nM, 0.33 nM, 1.1 nM, 3.8 nM, 13 nM, 44 nM, ˜0.15 μM, ˜0.51 μM, ˜1.7 μM, 5.9 μM and 20 μM) were tested in duplicate within the same microtiter plate. To this end, 100-fold concentrated compound solutions (in DMSO) were made by serial dilution (1:3.4) of freshly prepared 2 mM stocks in a clear low volume 384-well source microtiter plate (Greiner Bio-One, Frickenhausen, Germany), from which 50 nl of compounds were transferred into a black low volume test microtiter plate from the same supplier. Subsequently 2 μL of a solution containing biotinylated Bub1 (the final concentration of Bub1 was adjusted depending on the activity of the enzyme lot in order to be within the linear dynamic range of the assay: typically ˜200 pM were used) and 1 nM Streptavidin Terbium Cryptate (Cisbio, No. 610SATLB) in aqueous assay buffer [50 mM Tris/HCl pH 7.5, 200 mM potassium chloride (KCl), 1.0 mM dithiothreitol (DTT), 0.1 mM sodium ortho-vanadate, 1% (v/v) glycerol, 0.01% (w/v) bovine serum albumine (BSA), 0.005% (v/v) Triton X-100 (Sigma), were added to the compounds in the test plate and the mixture was incubated for 15 min at 22′C to allow pre-equilibration of the putative enzyme-inhibitor complexes before the start of the probe competition reaction, which was initiated by the addition of 3 μL 1.67-fold concentrated solution (in assay buffer) of 5-5-1 (final concentration: 1.5 nM). The resulting mixture (5 μL final volume) was Incubated at 220 during 0, 15, 30, 60, 120, 240 and 1440 min. After each time point the resonance energy transfer from the Streptavidin Tb cryptate to the 3′,6′-dihydroxy-3H-spiro[2-benzofuran-1,9′-xanthen]-3-one moiety of 5-5-1 was measured in order to quantify the amount of fluorescent probe displaced by the test compounds. To this end, the fluorescence emissions at 520 nm and 490 nm after excitation at 330-350 nm were measured in a Pherastar FS TR-FRET plate reader, (BMG Lab technologies, Offenburg, Germany) and the ratio of the emissions (520 nm/490 nm) was taken as Indicator for the amount of Bub1/5-5-1 equilibrium complexes. The data were normalized using two sets of control wells for high-(=enzyme reaction without inhibitor=0%=Minimum inhibition) and low-(=all assay components without enzyme=100%=Maximum inhibition) Bub1 activity. IC50 values were calculated by fitting the normalized inhibition data to a 4-parameter logistic equation (Minimum, Maximum, IC50, Hill; Y=Max+(Min−Max)/(1+(X/IC50)Hill)).
On the technique in general: In TR-FRET formats the signal depends on donor and acceptor labels being close together.

Each structure is given as a SMILES string. Where a name gives a salt, the structure may show the parent alone. Read-outs that look alike come from different tables or passages of the source.

What is called IC50 is the concentration that inhibits the measured activity by half. As for `CCOc1cc(F)c(Cn2nc(-c3ncc(OCCCOC(=O)[C@H](C)NC(=O)[C@@H](N)CCCCN)c(Nc4ccnc(C(F)F)c4)n3)c3ccccc32)c(F)c1` [Example 4-1-1, 3-[(4-{[2-(difluoromethyl)pyridin-4-yl]amino}-2-[1-(4-ethoxy-2,6-difluorobenzyl)-1H-Indazol-3-yl]pyrimidin-5-yl)oxy]propyl L-lysyl-L-alaninate, salt with trifluoroaceticacid], the recovery at 60 min, 0.2 mg/mL in data set [1] was 76%. Moreover, the recovery at 120 min, 0.2 mg/mL in data set [1] worked out at 57%. For the same compound, in data set [1], the recovery at 240 min, 0.2 mg/mL worked out at 32%. Moreover, in data set [1], the recovery at 1440 min, 0.2 mg/mL is 0%. Also, the “Stability pH4: % Test Compound after 4 h [F(t = 4 h) × 100/F(t = 0 h)]” value (shortened to “Stability pH4: % Test Compound after 4 h”) in data set [1] came out at 100%. Besides, the “Stability pH7.4: % Test Compound after 4 h [F(t = 4 h) × 100/F(t = 0 h)]” value (from here on “Stability pH7.4: % Test Compound”) in data set [1] is reported as 32%. For the same compound, the concentration for half-maximal inhibition (IC50) in data set [2] (Time 15 min) worked out at 1400 pM; in data set [2] (Time 30 min), 1500 pM; in data set [2] (Time 60 min) it was 1400 pM; in data set [2] (Time 90 min), 1500 pM; in data set [2] (Time 120 min), 1300 pM; in data set [2] (Time 240 min) it was 1500 pM. Besides, the half-maximal inhibitory concentration (IC50) in data set [2] (Time 1440 min) was 2000 pM.
On to `CCOc1cc(F)c(Cn2nc(-c3ncc(OCCCOC(=O)[C@H](C)NC(=O)[C@@H](N)CCCCN)c(Nc4ccnc(NC(C)=O)c4)n3)c3ccccc32)c(F)c1` [Example 4-1-2, 3-[(4-{[2-(acetylamino)pyridin-4-yl]amino}-2-[1-(4-ethoxy-2,6-difluorobenzyl)-1H-indazol-3-yl]pyrimidin-5-yl)oxy]propyl L-lysyl-L-alaninate, salt with trifiuoroaceticacid], for which, in data set [1], the “Stability pH4: % Test Compound after 4 h” value is 100% and the “Stability pH7.4: % Test Compound” value was determined as 30%.
As to `CCOc1cc(F)c(Cn2nc(-c3ncc(OCCCOC(=O)[C@H](C)NC(=O)[C@H](N)CCCCN)c(Nc4ccnc(NC(C)=O)c4)n3)c3ccccc32)c(F)c1` [Example 4-1-3, 3-[(4-{[2-(acetylamino)pyridin-4-yl]amino}-2-[1-(4-ethoxy-2,6-difluorobenzyl)-1H-indazol-3-yl]pyrimidin-5-yl)oxy]propyl D-lysyl-L-alaninate, salt with trifiuoroaceticacid], the recovery at 60 min, 0.2 mg/mL in data set [1] amounted to 75%. In data set [1], the recovery at 120 min, 0.2 mg/mL is 56%. Moreover, the recovery at 240 min, 0.2 mg/mL in data set [1] came to 31%. In data set [1], the recovery at 1440 min, 0.2 mg/mL was 0%. In addition, in data set [1], the “Stability pH4: % Test Compound after 4 h” value was found to be 100%. Also, the “Stability pH7.4: % Test Compound” value in data set [1] was found to be 31%. The IC50 in data set [2] (Time 15 min) is 1100 pM; in data set [2] (Time 30 min), 650 pM; in data set [2] (Time 60 min), 420 pM; in data set [2] (Time 90 min), 270 pM; in data set [2] (Time 120 min), 250 pM; in data set [2] (Time 240 min) it was 200 pM. Also, the IC50 in data set [2] (Time 1440 min) was determined as 170 pM.
As for `CCOc1cc(F)c(Cn2nc(-c3ncc(OCCCOC(=O)[C@H](C)NC(=O)[C@@H](N)CCCNC(=N)N)c(Nc4ccnc(NC(C)=O)c4)n3)c3ccccc32)c(F)c1` [Example 4-1-4, 3-[(4-{[2-(acetylamino)pyridin-4-yl]amino}-2-[1-(4-ethoxy-2,6-difluorobenzyl)-1H-indazol-3-yl]pyrimidin-5-yl)oxy]propyl L-arginyl-L-alaninate, salt with trifiuoroaceticacid], the recovery at 60 min, 0.2 mg/mL in data set [1] came to 86%. The recovery at 120 min, 0.2 mg/mL in data set [1] was determined as 73%. Further, in data set [1], the recovery at 240 min, 0.2 mg/mL was 53%. For the same compound, the recovery at 1440 min, 0.2 mg/mL in data set [1] is 3%. Further, the “Stability pH4: % Test Compound after 4 h” value in data set [1] was found to be 100%. Moreover, the “Stability pH7.4: % Test Compound” value in data set [1] is 53%. Further, the 50% inhibitory concentration (IC50) was determined as 2800 pM in data set [2] (Time 15 min); 580 pM in data set [2] (Time 30 min); 610 pM in data set [2] (Time 60 min); 550 pM in data set [2] (Time 90 min); 540 pM in data set [2] (Time 120 min); 320 pM in data set [2] (Time 240 min). In addition, the concentration for half-maximal inhibition (IC50) in data set [2] (Time 1440 min) turned out to be 330 pM.
For `CCOc1cc(F)c(Cn2nc(-c3ncc(OCCCOC(=O)[C@H](C)NC(=O)[C@H](N)CCCCN)c(Nc4cc(C)ncc4C)n3)c3ccccc32)c(F)c1` [Example 4-1-6, 3-({4-[(2,5-dimethylpyridin-4-yl)amino]-2-[1-(4-ethoxy-2,6-difluorobenzyl)-1H-indazol-3-yl]pyrimidin-5-yl}oxy)propyl D-lysyl-L-alaninate, salt with trifluoroaceticacid], in data set [1], the “Stability pH4: % Test Compound after 4 h” value turned out to be 101% and the “Stability pH7.4: % Test Compound” value turned out to be 53%.
For `CCOc1cc(F)c(Cn2nc(-c3ncc(OCCCOC(=O)[C@H](C)NC(=O)[C@@H](N)CCCCN)c(Nc4cc(C)ncc4C)n3)c3ccccc32)c(F)c1` [Example 4-1-7, 3-({4-[(2,5-dimethylpyridin-4-yl)amino]-2-[1-(4-ethoxy-2,6-difluorobenzyl)-1H-indazol-3-yl]pyrimidin-5-yl}oxy)propyl L-lysyl-L-alaninate, salt with trifluoroaceticacid], in data set [1], the “Stability pH4: % Test Compound after 4 h” value is given as 99% and the “Stability pH7.4: % Test Compound” value was found to be 43%.
Regarding `CCOc1cc(F)c(Cn2nc(-c3ncc(OCCCOC(=O)[C@H](C)NC(=O)[C@@H](N)CCCNC(=N)N)c(Nc4ccncc4Cl)n3)c3ccccc32)c(F)c1` [Example 4-1-8, 3-({4-[(3-chloropyridin-4-yl)amino]-2-[1-(4-ethoxy-2,6-difluorobenzyl)-1H-indazol-3-yl]pyrimidin-5-yl}oxy)propyl L-arginyl-L-alaninate], in data set [1], the “Stability pH4: % Test Compound after 4 h” value stood at 100% and the “Stability pH7.4: % Test Compound” value was determined as 56%.
For `CCOc1cc(F)c(Cn2nc(-c3ncc(OCCCOC(=O)[C@@H](NC(=O)[C@@H](N)CCCCN)C(C)C)c(Nc4ccncc4Cl)n3)c3ccccc32)c(F)c1` [Example 4-1-9, 3-({4-[(3-chloropyridin-4-yl)amino]-2-[1-(4-ethoxy-2,6-difluorobenzyl)-1H-indazol-3-yl]pyrimidin-5-yl}oxy)propyl L-lysyl-L-valinate], in that order: 99% and 99%.

Source of the values: patent US20170305882A1, “BENZYL SUBSTITUTED INDAZOLES AS BUB1 KINASE INHIBITORS” (Bayer Pharma Aktiengesellschaft, priority 2014, published 2017).
